# Results as given in patent US20200323882A1, “PHLIP®-MEDIATED TARGETING OF CORTICOSTEROIDS TO DISEASED TISSUE” (priority 2019, published 2020).
# Like-named read-outs stand apart in the source and are kept apart here.
# Experiments:
# [1] = system: MCP-1 (monocyte chemoattractant protein)
# Procedure: CD-1 male mouse, 6 to 7 weeks and 32-38 grams from Charles River Labs were used in the study. […] Briefly, mice were allowed optimal inhalation and passive gravitational flow of LPS directly to the lungs. 50 μg (in 50 μl) LPS was instilled into the nares in five boluses of 10 μl each. […] For processing, a mammalian protease inhibitor cocktail (diluted 1:100 in PBS) was added to each lung sample. Lungs were homogenized by Beadbeater with 2 mm zirconia beads for 1.5 minutes. Homogenates were spun at 10K for 10 minutes at 4° C., and supernatants collected for analysis. Quantikine kit (R&D Systems) assays for JE/MCP-1 were performed as per kit protocols. For the lungs samples, MCP-1 content was expressed as pg/mg of protein. Protein measurements were performed by Pierce™ BCA Protein Assay Kit according to the protocol provided by a manufacturer.
# [2] = system: RPMI 8226 myeloma cells; conditions: 5 μM pHLIP-Dexa, 2 hrs without FBS, viability after 22 hours
# Procedure: Myeloma cancer cells were loaded in the wells (30,000 cells/well) and incubated overnight. […] Cell viability was assessed after 22 hours using the colorimetric CellTiter 96 AQueous One Solution Cell Proliferation Assay by absorption measurement at 490 nm.
# [3] = system: oxazolone-induced contact hypersensitivity; conditions: 24 hrs after oxazolone challenge; pHLIP-Dexa 4.6 mg/kg i.p. vs Dexa 0.46 mg/kg i.p. and 20 mg/kg orally
# Procedure: CD-1 male mouse, 8 to 10 weeks from Charles River Labs were used in the study. Contact hypersensitivity was induced by sensitization and challenge with oxazalone as follows: on day 1, mice are sensitized to oxazalone by application (50 μL; 3% in 100% ethanol) to the abdominal area (previously shaved) and to each footpad (5 μL). On day 6, mice were exposed to oxazalone (20 μL; 1% in 100% ethanol) by application to each side of right ear. Twenty-four hrs after challenge (day 7), dermatitis severity was measured using a visual scale: 0—no evidence of erythema or swelling; 1—mild swelling; 2—mild erythema and moderate selling; 3—erythema and severe swelling. Ear thickness was measured using a micrometer once, prior to sensitization on day 1 (baseline) and once, after dosing on day 7 of the study.
substance,measurement,setting,value
pHLIP-(PEG4)-dexamethasone [pHLIP-Dexa],reduction of level of MCP-1 protein,"[1]; dose 4.6 mg/kg in PBS/5% DMSO, 30 minutes after LPS",very effective in reducing level of MCP-1 protein
same,reduction of level of MCP-1 protein,[1]; high dose 11.4 mg/kg in PBS/5% DMSO,less effective
same,"myeloma cancer cell viability, pHLIP-Dexa alone",[2],induced myeloma cancer cells death
same,decrease of thickness of animal ear,[3],as effective as high and low doses of Dexa
same,"reduction of inflammation (dermatitis severity, scale 0 to 3)",[3],as effective as high and low doses of Dexa
